Here are results for 5 sequences from US20200363414A1, “Neoantigen Identification for T-Cell Therapy” (Gritstone Oncology, Inc., priority 2018, published 2020).

This assay relates to neoantigen-reactive T-cells (patient PBMCs). In words: IFN-gamma ELISpot of in vitro expanded (IVS) NSCLC patient PBMCs. It is filed as cell-based, human. To be noted: IFN-gamma ELISpot after 14 day IVS culture of NSCLC patient PBMCs.

Where no end group is shown, it is not given here.

In the case of DENITTIQF, the “T-cell recognition of individual neoantigen peptide” value (shortened to “T-cell recognition”) is given as “peptide-specific T-cell response was deconvolved”. The value for DTVEYPYTSF was “peptide-specific T-cell response was deconvolved”; that for EVADAATLTM was “peptide-specific T-cell response was deconvolved”. Regarding GTKKDVDVLK, the “T-cell recognition” value was “recognized by CD8 T-cells”.

For the sequence QDVSVQVER, the “T-cell recognition” value is recorded as “peptide-specific T-cell response was deconvolved”.
